Measurements: patent US20160257697A1, “THIOPHENE-SUBSTITUTED TETRACYCLIC COMPOUNDS AND METHODS OFUSE THEREOF FOR THE TREATMENT OF VIRAL DISEASES” (priority 2013, published 2016)
Where two headings read alike, the source gives them in different places.

Experiments:
Assay in all cases: microbe, parasite or virus in culture
Assay type in all cases: cell-based, Hepatitis C virus (HCV)
HCV replicon 1AY93H = settings: Replicon Assay A
Method in brief: (§1)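 Read-out is replicon RNA per cell by real-time RT-PCR, normalised to cyclophilin mRNA amplified in the same well. Cells were exposed to compound for 3 days at 2000 cells/well in medium with 5% fetal bovine serum and 0.5% DMSO.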

HCV replicon 1A = settings: Replicon Assay A
Method in brief: as §1

HCV replicon 2B = settings: Replicon Assay A
Method in brief: as §1

HCV replicon 1B = settings: Replicon Assay B
Procedure: In an alternate assay (“Replicon Assay B”), 1000 cells were seeded per well in a 384-well collagen coated black plate from Greiner bio-one (Cat #781946) in 5% FBS. Inhibitors of this invention were added at 24 h post-seeding, and the plates were incubated for 3 days. Cells were subsequently lysed with Qiagen lysis buffer (Cat #1062731) to extract the RNA. HCV replicon RNA level was measured by real-time PCR using the RNA-to-CT kit from Applied Biosystem (Cat #4392656) and genotype-specific primers and probes. The amplicon was located within NS5B. […] (SEQ. ID NO. 2); the probe sequence was FAM-labeled […] (SEQ. ID NO. 3).
The real-time RT-PCR reactions were run on ABI PRISM 7900HT or Viia7 Sequence Detection System using the following program: 48° C. for 30 minutes, 95° C. for 10 minutes, 40 cycles of 95° C. for 15 sec, 60° C. for 1 minutes.
Data for replicons 1A, 1AY93H and 2B were obtained using Replicon Assay A and data for replicons 1AQ30D and 1B were obtained using Replicon Assay B.

[1] = read-out: 1A Y93H IC50, replicon 1AY93H

Row | Structure (SMILES) | IC50 (HCV replicon 1AY93H; [1]) [nM] | IC50 (HCV replicon 1A; replicon 1A) [pM] | IC50 (HCV replicon 2B; read-out: 2B IC50, replicon 2B) [nM] | IC50 (HCV replicon 1B; Hepatitis C virus, replicon 1B) [pM] | IC50 (HCV replicon 1A; Hepatitis C virus, replicon 1A) [pM] | further results
1 | COC(=O)NC(C(=O)N1CCC[C@H]1c1ncc(-c2cc(F)c3c(c2)OC(c2ccc(C4CC4)s2)n2c-3cc3cc(-c4cnc([C@@H]5CCCN5C(=O)[C@@H](NC(=O)OC)C5CCOCC5)[nH]4)ccc32)[nH]1)C(C)(C)F (single isomer, unassigned) [Compound 169] | 0.045 | 1.2 | 0.075 | 3.4 |  | 
2 | CCOC(C)[C@H](NC(=O)OC)C(=O)N1CCC[C@H]1c1ncc(-c2cc(F)c3c(c2)OC(c2cc(C)c(C)s2)n2c-3cc3cc(-c4cnc([C@@H]5CCCN5C(=O)[C@@H](NC(=O)OC)C(C)C)[nH]4)ccc32)[nH]1 (single isomer, unassigned) [Compound 79] | 0.14 |  | 0.32 | 3.4 | 2.1 | 
3 | COC(=O)NC(C(=O)N1CCC[C@H]1c1ncc(-c2ccc3c(c2)cc2n3C(c3ccc(C4CC4)s3)Oc3cc(-c4cnc([C@@H]5CCCN5C(=O)[C@@H](NC(=O)OC)C(C)C)[nH]4)cc(F)c3-2)[nH]1)C(C)(C)F (single isomer, unassigned) [Compound 77] | 0.24 | 1.8 | 0.41 |  |  | IC50 (HCV replicon 1B; replicon 1B): 2.9 pM
4 | COC(=O)N[C@H](C(=O)N1CCC[C@H]1c1ncc(-c2cc(F)c3c(c2)OC(c2ccc(F)s2)n2c-3cc3cc(-c4cnc([C@@H]5CCCN5C(=O)[C@@H](NC(=O)OC)C(C)C)[nH]4)ccc32)[nH]1)C(C)C (single isomer, unassigned) [Compound 13] | 2.1 |  | 3.79 | 2.3 | 1.9 | 
5 | COC(=O)NC(C(=O)N1CCC[C@H]1c1ncc(-c2ccc3c(c2)cc2n3C(c3ccc(CC4CC4)s3)Oc3cc(-c4cnc([C@@H]5CCCN5C(=O)[C@@H](NC(=O)OC)C(C)C)[nH]4)cc(F)c3-2)[nH]1)C1CCOC(C)(C)C1 (single isomer, unassigned) [Compound 409] |  |  |  |  |  | IC50 (HCV replicon 1AY93H; read-out: 1A Y93H IC50, HCV replicon 1A Y93H): 0.746 nM; IC50 (HCV replicon 1A; HCV replicon 1A): 1.7 pM; IC50 (HCV replicon 2B; read-out: 2B IC50, HCV replicon 2B): 0.181 nM; IC50 (HCV replicon 1B; HCV replicon 1B): 2.5 pM
6 | COC(=O)N[C@H](C(=O)N1CCC[C@H]1c1ncc(-c2cc(F)c3c(c2)OC(c2cc4c(s2)CCC4)n2c-3cc3cc(-c4cnc([C@@H]5CCCN5C(=O)[C@@H](NC(=O)OC)C(C)C)[nH]4)ccc32)[nH]1)C(C)C (single isomer, unassigned) [Compound 27] |  |  |  | 1.4 | 1.6 | IC50 (HCV replicon 1AY93H; Hepatitis C virus, read-out: 1A Y93H IC50 (nM), replicon 1AY93H): 0.65 nM; IC50 (HCV replicon 2B; Hepatitis C virus, read-out: 2B IC50 (nM), replicon 2B): 1.49 nM
7 | CCc1ccc(C2Oc3cc(-c4c[nH]c([C@@H]5CCCN5C(=O)[C@@H](NC(=O)OC)C(C)C)n4)ccc3-c3cc4c(F)c(-c5c[nH]c([C@@H]6CCCN6C(=O)C(NC(=O)OC)C6C[C@@H](C)O[C@@H](C)C6)n5)ccc4n32)s1 (single isomer, unassigned) [Compound 361] | 0.138 | 3.6 | 0.0389 | 3.5 |  | 
8 | CC[C@@H]1CC(C(NC(=O)OC)C(=O)N2CCC[C@H]2c2ncc(-c3ccc4c(c3)cc3n4C(c4ccc(C5CC5)s4)Oc4cc(-c5cnc([C@@H]6CCCN6C(=O)[C@@H](NC(=O)OC)C(C)C)[nH]5)cc(F)c4-3)[nH]2)C[C@H](CC)O1 (single isomer, unassigned) [Compound 289] | 1.24 | 3.1 | 5.64 | 4.2 |  | 
9 | COC(=O)N[C@H](C(=O)N1CCC[C@H]1c1ncc(-c2cc(F)c3c(c2)OC(c2ccc(C(C)(C)O)s2)n2c-3cc3cc(-c4cnc([C@@H]5CCCN5C(=O)[C@@H](NC(=O)OC)C(C)C)[nH]4)ccc32)[nH]1)C(C)C (single isomer, unassigned) [Compound 83] | 0.42 |  | 0.8 | 3.1 | 3.2 | 
10 | COC(=O)NC(C(=O)N1CCC[C@H]1c1ncc(-c2ccc3c(c2)cc2n3C(c3cc(C)c(C)s3)Oc3cc(-c4cnc([C@@H]5CCCN5C(=O)[C@@H](NC(=O)OC)C5CCOCC5)[nH]4)cc(F)c3-2)[nH]1)C(C)(C)F (single isomer, unassigned) [Compound 130] | 0.24 | 1.7 | 0.24 | 3.6 |  | 
11 | COC(=O)N[C@H](C(=O)N1CCC[C@H]1c1ncc(-c2ccc3c(c2)O[C@@H](c2cc4c(s2)CCC4)n2c-3cc3cc(-c4cnc([C@@H]5CCCN5C(=O)[C@@H](NC(=O)OC)C(C)C)[nH]4)ccc32)[nH]1)C(C)C (single isomer, unassigned) [Compound 600] |  |  |  |  |  | IC50 (HCV replicon 1AY93H; Hepatitis C virus, read-out: 1A Y93H IC50, HCV replicon 1A Y93H): 0.57 nM; IC50 (HCV replicon 1A; Hepatitis C virus, HCV replicon 1A): 25.6 pM; IC50 (HCV replicon 2B; Hepatitis C virus, read-out: 2B IC50, HCV replicon 2B): 1.09 nM; IC50 (HCV replicon 1B; Hepatitis C virus, HCV replicon 1B): 186 pM
